Experimental data published in article PMC11695783 (Frontiers in Pharmacology, 2024).
Values joined by “and” are separate entries in the source; they are usually repeats but may differ in a detail not shown here. Equal values may be shown once.

Assay: Pharmacokinetic studies in mice (intravenous and intramuscular, plasma, HPLC-MS/MS)
Type: in vivo, BALB/c mice
Set-up: AUClast / AUCall / AUCINF_obs / AUCINF_pred / AUCINFobs: concentration or dose not given beside the values; Tlast / Clast / AUMClast / AUMCINF_obs / AUMCINF_pred / Lambda_z / HL_Lambda_z / Cl_obs / Cl_pred / Cl_F_obs / Tlag / Cl_F_pred: unit not given here
Conditions: IV; for plasma concentration: individual mice 1-8; for plasma concentration, AV: average of mice
Description: Pharmacokinetic experimental procedures of compound 16C were measured according to previous reports with some modifications ([Wang et al., 2022]). In brief, BALB/c mice were divided into two groups of eight mice each; one group was injected intravenously and the other was injected intramuscularly with compound 16C at a dose of 10 mg/kg. The dose was based on previous studies of novel pleuromutilin derivatives ([Jin et al., 2019]; [Wang et al., 2022]). Meanwhile, the dose of tiamulin approved by the European Union for intramuscular administration is 10–20 mg/kg ([EMA, 1999]). The volume of the injection was 0.1 mL/10 g. The compound 16C formulation was a filtered solution in 5% DMSO, 5% Tween-80, and 90% normal saline. Blood was obtained from eight mice via the ocular venous plexus at 0.083, 0.167, 0.25, 0.334, 0.5, 0.75, 1, 1.5, 2, 3, 4, 6, 8, and 12 h following tail intravenous or thigh Intramuscular injection. A glass capillary with a diameter of 0.3 mm was inserted into the outer canthus of the mouse, and 200 μL blood was collected using a 1.5 mL anticoagulant centrifuge tube. The blood was centrifuged at 3,000 rpm for 10 min to obtain plasma. 100 μL of plasma was aspirated for drug concentration detection, and eight parallel samples from different mice were obtained at each time point.
All pharmacokinetic experimental samples and method validation samples were added with 4 times the volume of acetonitrile and shaken for 1 min, centrifuged at high speed at 13,000× g for 10 min, and the supernatants were taken and filtered to detect the drug concentration. Some samples with high concentrations were diluted to the linear range prior to analysis.
The extracted samples were analyzed using a high-performance liquid chromatography-tandem mass spectrometry (HPLC-MS/MS) system (Agilent, Santa Clara, CA, United States) 1200 HPLC and Applied Biosystems (Waltham, MA, United States) API 4000 mass spectrometer). HPLC-MS/MS analysis using a Zorbax Eclipse XDB-C18 (4.6 × 50 mm, 3.5 μm) column (Agilent). The mobile phase A (acetonitrile) and B (water) were applied as a gradient as follows: 0–3 min: 15%–95% A and maintain from 3 min to 5 min at 95% A. 5–5.1 min: 95%–15% A and maintain from 5.1 to 10 min at 15% A. Flow rate: 500 μL/min; column temperature: 30°C and injection volume: 4 μL. The electrospray ionization (ESI) source of the mass spectrometer was operated in […], with the following ion source parameters: ion spray voltage 4,500 V, collision gas 7 psi, ion source gas 1 55 psi, ion source gas 2 40 psi, curtain gas 20 psi, source temperature 600°C. The precursor ion m/z of Compound 16C was 633.3, and the product ions m/z were 272.0 (quantifier) 286.9 and 313.0. Declustering potentials (DP) were 140, 140, and 144 V, respectively; entrance potential (EP) was 10 V; collision energy (CE) was 55, 46, and 15 V, respectively; and collision cell exit potential (CXP) was 14 V.
[…] Pharmacokinetic parameters include time to maximum concentration (Tmax), maximum concentration (Cmax), the area under the plasma concentration–time curve (AUC0-∞), clearance rate (CL), the apparent volume of distribution (Vd), bioavailability (F), elimination half-life (T1/2kel) and absorption half-life (T1/2ka).

In the case of `C=C[C@]1(C)C[C@@H](OC(=O)CSc2ccc(NC(=O)Cc3ccc([N+](=O)[O-])cc3)cc2)[C@]2(C)[C@H](C)CC[C@]3(CCC(=O)[C@H]32)[C@@H](C)[C@@H]1O`, the plasma concentration (0.083h) is reported as 4.18 ng/mL and 5.51 ng/mL and 3.62 ng/mL and 4.5 ng/mL and 6.77 ng/mL and 4.82 ng/mL and 6.27 ng/mL and 4.14 ng/mL, the “plasma concentration, AV” value (0.17h) is reported as 2.954 ng/mL and the plasma concentration (0.17h) is reported as 2.24 ng/mL and 3.08 ng/mL and 2.67 ng/mL and 1.93 ng/mL and 4.06 ng/mL and 3.1 ng/mL and 3.5 ng/mL and 3.05 ng/mL. For the same molecule, the “plasma concentration, AV” value (0.25h) was 1.9525 ng/mL, the plasma concentration (0.25h) was 1.53 ng/mL and 1.91 ng/mL and 1.97 ng/mL and 1.44 ng/mL and 2.52 ng/mL and 1.83 ng/mL and 2.17 ng/mL and 2.25 ng/mL and the “plasma concentration, AV” value (0.33h) was 1.413 ng/mL. The plasma concentration (0.33h) was 1.05 ng/mL and 1.59 ng/mL and 1.43 ng/mL and 0.752 ng/mL and 1.83 ng/mL and 1.19 ng/mL and 1.81 ng/mL and 1.65 ng/mL, the “plasma concentration, AV” value (0.5h) was 0.9296 ng/mL and the plasma concentration (0.5h) was 0.563 ng/mL and 0.856 ng/mL and 1.02 ng/mL and 0.564 ng/mL and 1.49 ng/mL and 0.788 ng/mL and 0.986 ng/mL and 1.17 ng/mL. The “plasma concentration, AV” value (0.75h) was 0.4375 ng/mL, the plasma concentration (0.75h) was 0.295 ng/mL and 0.454 ng/mL and 0.34 ng/mL and 0.281 ng/mL and the “plasma concentration, AV” value (1h) was 0.1263 ng/mL. For the same molecule, the “plasma concentration, AV” value (1.5h) was 0.0633 ng/mL, the “plasma concentration, AV” value (2h) was 0.03673 ng/mL and the “plasma concentration, AV” value (3h) was 0.01748 ng/mL. The “plasma concentration, AV” value (4h) was 0.01406 ng/mL, the “plasma concentration, AV” value (6h) was 0.005976 ng/mL and the “plasma concentration, AV” value (8h) was 0.004256 ng/mL. For the same molecule, the “plasma concentration, AV” value (12h) was 0.002617 ng/mL, the AUCINF_obs (individual mice) was 1731 and 1454.8 and 1871.31 and 1501.72 and 1496.6 and 2594.18 and 1738.12 and 2317.09 and the AUCINF_pred (individual mice) was 1730.96 and 1454.56 and 1871.3 and 1501.69 and 1496.6 and 2594.16 and 1737.96 and 2317.08. The AUC_%Back_Ext_obs (individual mice) was 23.2101% and 33.5458% and 33.5029% and 23.3787% and 40.4621% and 28.4699% and 29.0426% and 30.8151%, the AUC_%Back_Ext_pred (individual mice) was 23.2107% and 33.5513% and 33.5032% and 23.3791% and 40.462% and 28.47% and 29.0454% and 30.8152% and the AUC_%Extrap_obs (individual mice) was 1.0811% and 0.9306% and 0.1046% and 0.8821% and 0.3771% and 0.7545% and 1.237% and 1.2773%. For the same molecule, the AUC_%Extrap_pred (individual mice) was 1.0785% and 0.9144% and 0.1039% and 0.8804% and 0.3773% and 0.754% and 1.2276% and 1.277%, the AUCall (individual mice) was 1712.29 and 1441.26 and 1869.35 and 1488.47 and 1490.96 and 2574.6 and 1716.62 and 2287.49 and the AUClast (individual mice) was 1712.29 and 1441.26 and 1869.35 and 1488.47 and 1490.96 and 2574.6 and 1716.62 and 2287.49. The AUMCINF_obs (individual mice) was 945.518 and 756.201 and 591.051 and 764.612 and 715.375 and 1415.53 and 1084.7 and 1445.93, the AUMCINF_pred (individual mice) was 944.931 and 753.432 and 590.916 and 764.278 and 715.413 and 1415.38 and 1082.77 and 1445.86 and the AUMC_%Extrap_obs (individual mice) was 25.4794% and 20.837% and 3.3902% and 21.6397% and 12.7428% and 15.3656% and 22.9491% and 23.7174%. For the same molecule, the AUMC_%Extrap_pred (individual mice) was 25.4331% and 20.546% and 3.368% and 21.6055% and 12.7474% and 15.3562% and 22.812% and 23.7133%, the AUMClast (individual mice) was 704.605 and 598.632 and 571.014 and 599.152 and 624.216 and 1198.03 and 835.77 and 1103 and the C0 (individual mice) was 5541.15 and 7579.63 and 9597.07 and 4839.8 and 10091.7 and 11026.6 and 7343.77 and 10935.2. The Cl_obs (individual mice) was 0.0069 and 0.0053 and 0.0067 and 0.0039 and 0.0058 and 4315.76, the Cl_pred (individual mice) was 0.0069 and 0.0053 and 0.0067 and 0.0039 and 0.0058 and 4315.77 and the Clast (individual mice) was 3.84 and 3.72 and 0.875 and 2.95 and 1.36 and 6.29 and 6.01 and 8.25. For the same molecule, the Cmax (individual mice) was 4140 and 4180 and 5510 and 3620 and 4500 and 6770 and 4820 and 6270, the HL_Lambda_z (individual mice) was 3.378 and 2.5225 and 1.5506 and 3.1126 and 2.8768 and 2.157 and 2.4798 and 2.4866 and the Tlast (individual mice) was 8 and 12. For the same molecule, the Cmax_D (individual mice, dose-normalised, in µg/mL) was 0.0004 and 418 and 551 and 362 and 450 and 677 and 482, the Lambda_z (individual mice, non-compartmental analysis) was 0.2052 and 0.2748 and 0.447 and 0.2227 and 0.2409 and 0.3213 and 0.2795 and 0.2788 and the MRTINF_obs (individual mice, in h) was 0.5462 and 0.5198 and 0.3158 and 0.5092 and 0.478 and 0.5457 and 0.6241 and 0.624. For the same molecule, the MRTINF_pred (individual mice, in h) was 0.5459 and 0.518 and 0.3158 and 0.5089 and 0.478 and 0.5456 and 0.623 and 0.624, the MRTlast (individual mice, in h) was 0.4115 and 0.4154 and 0.3055 and 0.4025 and 0.4187 and 0.4653 and 0.4869 and 0.4822 and the Tmax (individual mice, in h) was 0.083.
